{
  "source": "patent US9228089B2",
  "about": "“Polyester polyamine and polyester polyquaternary ammonium corrosion inhibitors” (AKZO NOBEL CHEMICALS INTERNATIONAL B.V., priority 2010, dated 2016)",
  "key": {"[1]": {"assay": "bubble test, corrosion rate monitored by linear polarization resistance (LPR) in CO2-saturated synthetic Forties brine", "conditions": "80 ppm active inhibitor, 54° C.", "method": "The tests were carried out using the well-known “bubble test” method, see for instance the discussion in NACE International, Vol. 46, No. 5, pp 46-51 (May 2007), where corrosion rate is monitored by linear polarization resistance (LPR). First a baseline corrosion rate in the medium is established, and then corrosion rates with different amounts of inhibitor added are measured.\nThe detailed conditions for the tests were as follows: • Temperature 54° C. • CO2 CO2 Saturated at ambient pressure (˜0.9 bara partial pressure) • Liquids 100% Typical “Forties” (North Sea water) synthetic brine as shown below: • Chloride=42539 mg/l • Sulphate=0 mg/l • Barium=173 mg/l • Calcium=1979 mg/l • Strontium=351 mg/l • Magnesium=377 mg/l • Sodium=24973 mg/l • Potassium=341 mg/l • Bicarbonate=200 mg/l • Electrode Fabricated from AISI 1018 (UNS G10180), polished to 600 grit finish, degreased rinsed and dried • Inhibitor Concentration 4 hour precorrosion without inhibitor, then dose with 10 ppm of inhibitor and evaluate corrosion rate for at least 8 h, then add inhibitor so that the next level of total inhibitor dosage is reached according to Table 1. After each addition the corrosion rate is measured for at least 8 h. • Gas and partial pressure Ambient pressure test. […]"}, "[2]": {"conditions": "example 6 of PCT/EP2010/059325, cited from earlier work"}},
  "data": [
    {"substance": "C12-C16 Cocoalkyl di-methyl benzyl quaternary amine", "values": [
      {"measurement": "% Protection at 80 ppm", "setting": "[1]", "result": 89.6, "unit": "%"},
      {"measurement": "% protection at 20 ppm", "setting": "[2]; 20 ppm", "result": "−28", "unit": "%"},
      {"measurement": "% protection at 50 ppm", "setting": "[2]; 50 ppm", "result": 38, "unit": "%"}
    ]}
  ]
}
